# Laboratory results published in patent US20080096907A1, “Aryl, Pyrimidyl Compounds, Pharmaceutical Compositions Comprising them, Their Use as Antimicrobial Agents” (INSTITUT PASTEUR, priority 2004, published 2008).
# B1: TMPKh (human TMPK) (Homo sapiens) (protein)
# chain: MAARRGALIVLEGVDRAGKSTQSRKLVEALCAAGHRAELLRFPERSTEIGKLLSSYLQKKSDVEDHSVHLLFSANRWEQVPLIKEKLSQGVTLVVDRYAFSGVAFTGAKENFSLDWCKQPDVGLPKPDLVLFLQLQLADAAKRGAFGHERYENGAFQERALRCFHQLMKDTTLNWKMVDASKSIEAVHEDIRVLSEDAIRTATEKPLGELWK
# Substrate: Cc1cn([C@H]2C[C@H](O)[C@@H](COP(=O)(O)O)O2)c(=O)[nH]c1=O
# Assay: purified protein, by the assay type
# Conditions: other: substrate Km; pH 7.4; 30.0 °C
row,Molecule,Km [µM]
1,B1,5

# Tested on: Mycobacterium tuberculosis H37Ra
# Assay: IC50 on cultures of Mycobacterium tuberculosis H37Ra
# Type: cell-based
# Conditions: not given
# Source text: The IC50 value for three compounds has been measured on cultures of Mycobacterium tuberculosis H37Ra.
row,Molecule,IC50 [µg/mL]
1,"Cc1cn(Cc2ccc(CCCC(=O)O)cc2)c(=O)[nH]c1=O [Compound 20, 4-[4-(5-Methyl-2,4-dioxo-3,4-dihydro-2H-pyrimidin-1-yl-methyl)-phenyl]-butyric acid]",100
2,"O=C(O)CCCc1ccc(Cn2cc(Br)c(=O)[nH]c2=O)cc1 [Compound 21, 4-[5-Bromo-(2,4-dioxo-3,4-dihydro-2H-pyrimidin-1-ylmethyl)-phenyl]butyric acid]",50
3,"Cc1cn(Cc2ccc(CCCCCC(=O)O)cc2)c(=O)[nH]c1=O [Compound 22, 6-[4-(5-Methyl-2,4-dioxo-3,4-dihydro-2H-pyrimidin-1-yl-methyl)-phenyl]-hexanoic acid]",25

# Tested on: VERO cells
# Assay: cytotoxicity on VERO cells
# Type: cell-based
# Conditions: not given
# Description: Cytotoxicity: The molecule 22 has been tested for its cytotoxicity on VERO cells. It has been determined that no growth inhibition, and consequently no cytotoxic activity, could be detected up to a concentration of 250 μg/ml of compound 22.
row,Molecule,concentration up to which no growth inhibition / no cytotoxic activity could be detected [µg/mL]
1,"Cc1cn(Cc2ccc(CCCCCC(=O)O)cc2)c(=O)[nH]c1=O [Compound 22, 6-[4-(5-Methyl-2,4-dioxo-3,4-dihydro-2H-pyrimidin-1-yl-methyl)-phenyl]-hexanoic acid]",> 250

# Tested on: Cc1cn([C@H]2C[C@H](O)[C@@H](COP(=O)(O)O)O2)c(=O)[nH]c1=O
# Assay: purified protein, by the assay type
# Conditions: other: substrate Km; pH 7.4; 30.0 °C
# Remark: another data set of the same source
row,Molecule,Km [µM]
1,TMPKmt (M. tuberculosis TMPK) (Mycobacterium tuberculosis H37Rv),4.5

# Target: TMPKmt (M. tuberculosis TMPK) (Mycobacterium tuberculosis, UniProt P9WKE1)
# Sequence (P9WKE1 whole entry, looked up): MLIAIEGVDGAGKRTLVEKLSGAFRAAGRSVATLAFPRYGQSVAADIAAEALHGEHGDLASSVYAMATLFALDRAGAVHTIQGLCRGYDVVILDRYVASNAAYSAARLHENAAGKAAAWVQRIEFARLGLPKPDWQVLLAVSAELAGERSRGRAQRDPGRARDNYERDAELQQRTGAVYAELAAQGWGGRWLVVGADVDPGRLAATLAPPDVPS
# Assay: biochemical
# Type: biochemical
# Conditions: not given
row,Molecule,Ki [µM]
1,"O=C(O)CCCCCc1ccc(Cn2cc(Cl)c(=O)[nH]c2=O)cc1 [Compound 59, 6-[4-(5-Chloro-2,4-dioxo-3,4-dihydro-2H-pyrimidin-1-yl-methyl)-phenyl]-hexanoic acid]",49
2,"NC(=O)CCCCCc1ccc(Cn2cc(Cl)c(=O)[nH]c2=O)cc1 [Compound 62, 6-[4-(5-Chloro-2,4-dioxo-3,4-dihydro-2H-pyrimidin-1-yl-methyl)-phenyl]-hexanoic acid amide]",32
3,"Cc1cn(Cc2ccc(CC(F)CC=O)cc2)c(=O)[nH]c1=O (stereo not drawn) [Compound 64, 3-Fluoro-4-[4-(5-methyl-2,4-dioxo-3,4-dihydro-2H-pyrimidin-1-yl-methyl)-phenyl]-butyraldehyde]",26
4,"Cc1cn(Cc2ccc(CC(F)CC(=O)O)cc2)c(=O)[nH]c1=O (stereo not drawn) [Compound 65, 3-Fluoro-4-[4-(5-Methyl-2,4-dioxo-3,4-dihydro-2H-pyrimidin-1-yl-methyl)-phenyl]-butyric acid]",63

# Same assay, conditions: pH 7.4; read-out: Ki
row,Molecule,Ki [µM]
1,"Cc1cn(Cc2ccc(C#CCCO)cc2)c(=O)[nH]c1=O [Compound 30, 1-[4-(4-Hydroxy-but-1-ynyl)-benzyl]-5-methyl-1H-pyrimidine-2,4-dione]",86
2,"Cc1cn(Cc2ccc(CCCCO)cc2)c(=O)[nH]c1=O [Compound 31, 1-[4-(4-Elydroxy-butyl)-benzyl]-5-methyl-1H-pyrimidine-2,4-dione]",63
3,O=C(O)CCCc1ccc(Cn2cc(Cl)c(=O)[nH]c2=O)cc1 [Compound 39],15
4,COC(=O)CCCc1ccc(Cn2cc(C)c(=O)[nH]c2=O)cc1 [Compound 40a],70
5,Cc1cn(Cc2ccc(CCCC(N)=O)cc2)c(=O)[nH]c1=O [Compound 40b],139
6,"Cc1cn(Cc2ccc(CCCCC(=O)O)cc2)c(=O)[nH]c1=O [Compound 45, 5-[4-(5-Methyl-2,4-dioxo-3,4-dihydro-2H-pyrimidin-1-yl-methyl)-phenyl]-pentanoic acid]",72
7,"O=C(O)CCCCc1ccc(Cn2cc(Br)c(=O)[nH]c2=O)cc1 [Compound 48, 5-[4-(5-Bromo-2,4-dioxo-3,4-dihydro-2H-pyrimidin-1-yl-methyl)-phenyl]-pentanoic acid]",47
8,"Cc1cn(Cc2ccc(C#CCCCC(=O)O)cc2)c(=O)[nH]c1=O [Compound 51, 6-[4-(5-Methyl-2,4-dioxo-3,4-dihydro-2H-pyrimidin-1-yl-methyl)-phenyl]-hexyn-5-oic acid]",119
9,"Cc1cn(Cc2ccc(C#CCCCC(N)=O)cc2)c(=O)[nH]c1=O [Compound 53, 6-[4-(5-Methyl-2,4-dioxo-3,4-dihydro-2H-pyrimidin-1-yl-methyl)-phenyl]-hexyn-5-oic acid amide]",113
10,"Cc1cn(Cc2ccc(CCCCCC(N)=O)cc2)c(=O)[nH]c1=O [Compound 54, 6-[4-(5-Methyl-2,4-dioxo-3,4-dihydro-2H-pyrimidin-1-yl-methyl)-phenyl]-hexanoic acid amide]",33
11,"O=C(O)CCCCCc1ccc(Cn2cc(Br)c(=O)[nH]c2=O)cc1 [Compound 58, 6-[4-(5-Bromo-2,4-dioxo-3,4-dihydro-2H-pyrimidin-1-yl-methyl)-phenyl]-hexanoic acid]",42
12,"NC(=O)CCCCCc1ccc(Cn2cc(Br)c(=O)[nH]c2=O)cc1 [Compound 61, 6-[4-(5-Bromo-2,4-dioxo-3,4-dihydro-2H-pyrimidin-1-yl-methyl)-phenyl]-hexanoic acid amide]",24
13,"Cc1cn(Cc2ccc(CSCC(=O)O)cc2)c(=O)[nH]c1=O [Compound 63, 3-[4-(5-Methyl-2,4-dioxo-3,4-dihydro-2H-pyrimidin-1-ylmethyl)-benzylsulfanyl]-acetic acid]",15

# Same assay, conditions: pH 7.4; read-out: TMPKmt W1002 Ki
row,Molecule,Ki [µM]
1,"Cc1cn(Cc2ccc(CCC(N)=O)cc2)c(=O)[nH]c1=O [Compound 1, 3-[4-(5-Methyl-2,4-dioxo-3,4-dihydro-2H-pyrimidin-1-ylmethyl)-phenyl]-propionamide]",110
2,"Cc1cn(Cc2ccc(CCC(=O)O)cc2)c(=O)[nH]c1=O [Compound 2, 3-[4-(5-Methyl-2,4-dioxo-3,4-dihydro-2H-pyrimidin-1-ylmethyl)-phenyl]-propionic acid]",68
3,"Cc1cn(Cc2ccccc2)c(=O)[nH]c1=O [Compound 3, 5-Methyl-1-Benzyl-1H-pyrimidine-2,4-dione]",75
4,"O=c1[nH]c(=O)n(Cc2ccccc2)cc1Br [Compound 4, 5-Bromo-1-benzyl-1H-pyrimidine-2,4-dione]",44
5,"Cc1cn(Cc2ccc(F)cc2)c(=O)[nH]c1=O [Compound 6, 5-Methyl-1-(4-fluoro-benzyl)-1H-pyrimidine-2,4-dione]",45
6,"Cc1cn(Cc2cccc(F)c2)c(=O)[nH]c1=O [Compound 7, 5-Methyl-1-(3-fluoro-benzyl)-1H-pyrimidine-2,4-dione]",90
7,"Cc1cn(Cc2ccc(F)c(F)c2)c(=O)[nH]c1=O [Compound 8, 5-Methyl-1-(3,4-difluoro-benzyl)-1H-pyrimidine-2,4-dione]",67
8,"Cc1cn(Cc2ccc(Cl)cc2)c(=O)[nH]c1=O [Compound 9, 5-Methyl-1-(4-chloro-benzyl)-1H-pyrimidine-2,4-dione]",50
9,"Cc1cn(Cc2cccc(Cl)c2)c(=O)[nH]c1=O [Compound 10, 5-Methyl-1-(3-chloro-benzyl)-1H-pyrimidine-2,4-dione]",44
10,"Cc1cn(Cc2ccc(Br)cc2)c(=O)[nH]c1=O [Compound 11, 5-Methyl-1-(4-bromo-benzyl)-1H-pyrimidine-2,4-dione]",38
11,N#Cc1cn(Cc2ccccc2)c(=O)[nH]c1=O [Compound 12],980
12,N#Cc1cn(Cc2cccc(Cl)c2)c(=O)[nH]c1=O [Compound 13],810
13,"Cc1cn(Cc2ccc(C=CC(N)=O)cc2)c(=O)[nH]c1=O [Compound 14, 3-[4-(5-Methyl-2,4-dioxo-3,4-dihydro-2H-pyrimidin-1-ylmethyl)-phenyl]-acrylamide]",240
14,"CCOC(=O)CCc1ccc(Cn2cc(C)c(=O)[nH]c2=O)cc1 [Compound 19, 3-[4-(5-Methyl-2,4-dioxo-3,4-dihydro-2H-pyrimidin-1-ylmethyl)-phenyl]-propionic acid ethyl ester]",265
15,"Cc1cn(Cc2ccc(CCCC(=O)O)cc2)c(=O)[nH]c1=O [Compound 20, 4-[4-(5-Methyl-2,4-dioxo-3,4-dihydro-2H-pyrimidin-1-yl-methyl)-phenyl]-butyric acid]",16.5
16,"Cc1cn(Cc2ccc(CCCCCC(=O)O)cc2)c(=O)[nH]c1=O [Compound 22, 6-[4-(5-Methyl-2,4-dioxo-3,4-dihydro-2H-pyrimidin-1-yl-methyl)-phenyl]-hexanoic acid]",32
